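Following 48 hours of exposure in 96-well plates, responses at five concentrations were used to interpolate endpoints linearly. TGI marks complete inhibition of growth.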
Assays:
Assay in all cases: NCI-60 cell line screen, 48 h
M19-MEL melanoma = system: M19-MEL melanoma
RXF 393 renal = system: RXF 393 renal
SF-268 CNS = system: SF-268 CNS
SF-539 CNS = system: SF-539 CNS
NCI-H226 lung = system: NCI-H226 lung
LXFL 529 NSCLC = system: LXFL 529 NSCLC
SNB-78 CNS = system: SNB-78 CNS
KM20L2 colon = system: KM20L2 colon
UACC-257 melanoma = system: UACC-257 melanoma
OVCAR-5 ovarian = system: OVCAR-5 ovarian
MALME-3M melanoma = system: MALME-3M melanoma
HT29 colon = system: HT29 colon
SNB-19 CNS = system: SNB-19 CNS
XF 498 CNS = system: XF 498 CNS
SN12C renal = system: SN12C renal
HCT-15 colon = system: HCT-15 colon
SK-MEL-2 melanoma = system: SK-MEL-2 melanoma
SK-MEL-5 melanoma = system: SK-MEL-5 melanoma
EKVX NSCLC = system: EKVX NSCLC
HOP-62 NSCLC = system: HOP-62 NSCLC
OVCAR-8 ovarian = system: OVCAR-8 ovarian
DLD-1 colon = system: DLD-1 colon
LOX IMVI melanoma = system: LOX IMVI melanoma
UO-31 renal = system: UO-31 renal
KM12 colon = system: KM12 colon
CCRF-CEM leukemia = system: CCRF-CEM leukemia
M14 melanoma = system: M14 melanoma
NCI-H522 lung = system: NCI-H522 lung
TK-10 renal = system: TK-10 renal
HL-60(TB) leukemia = system: HL-60(TB) leukemia
SW-620 colon = system: SW-620 colon
IGROV1 ovarian = system: IGROV1 ovarian
786-0 renal = system: 786-0 renal
SK-OV-3 ovarian = system: SK-OV-3 ovarian
U251 CNS = system: U251 CNS
A498 renal = system: A498 renal
HOP-18 NSCLC = system: HOP-18 NSCLC
A549 NSCLC = system: A549 NSCLC
HOP-92 NSCLC = system: HOP-92 NSCLC
SNB-75 CNS = system: SNB-75 CNS
COLO 205 colon = system: COLO 205 colon
UACC-62 melanoma = system: UACC-62 melanoma
OVCAR-3 ovarian = system: OVCAR-3 ovarian
OVCAR-4 ovarian = system: OVCAR-4 ovarian
SF-295 CNS = system: SF-295 CNS
DMS 114 small cell lung = system: DMS 114 small cell lung
NCI-H23 lung = system: NCI-H23 lung
NCI-H460 lung = system: NCI-H460 lung
SK-MEL-28 melanoma = system: SK-MEL-28 melanoma
ACHN renal = system: ACHN renal
DMS 273 small cell lung = system: DMS 273 small cell lung
HCC-2998 colon = system: HCC-2998 colon
HCT-116 colon = system: HCT-116 colon
MOLT-4 leukemia = system: MOLT-4 leukemia
RPMI-8226 leukemia = system: RPMI-8226 leukemia
SR leukemia = system: SR leukemia
CAKI-1 renal = system: CAKI-1 renal
K-562 leukemia = system: K-562 leukemia

CCCCCCCCCCCCC(Br)C(=O)SCCNC(=O)CCNC(=O)[C@@H](O)C(C)(C)COP(=O)(O)OP(=O)(O)OCC1OC(n2cnc3c(N)ncnc32)C(O)C1OP(=O)(O)O (some centres undefined)
TGI (M19-MEL melanoma): > 56.5 µM
TGI (RXF 393 renal): > 56.5 µM
TGI (SF-268 CNS): > 56.5 µM
TGI (SF-539 CNS): > 56.5 µM
TGI (NCI-H226 lung): > 56.5 µM
TGI (LXFL 529 NSCLC): > 56.5 µM
TGI (SNB-78 CNS): > 56.5 µM
TGI (KM20L2 colon): > 56.5 µM
TGI (UACC-257 melanoma): 40.4 µM
TGI (OVCAR-5 ovarian): > 56.5 µM
TGI (MALME-3M melanoma): > 56.5 µM
TGI (HT29 colon): > 56.5 µM
TGI (SNB-19 CNS): > 56.5 µM
TGI (XF 498 CNS): > 56.5 µM
TGI (SN12C renal): > 56.5 µM
TGI (HCT-15 colon): > 56.5 µM
TGI (SK-MEL-2 melanoma): > 56.5 µM
TGI (SK-MEL-5 melanoma): > 56.5 µM
TGI (EKVX NSCLC): > 56.5 µM
TGI (HOP-62 NSCLC): > 56.5 µM
TGI (OVCAR-8 ovarian): > 56.5 µM
TGI (DLD-1 colon): > 56.5 µM
TGI (LOX IMVI melanoma): > 56.5 µM
TGI (UO-31 renal): > 56.5 µM
TGI (KM12 colon): > 56.5 µM
TGI (CCRF-CEM leukemia): > 56.5 µM
TGI (M14 melanoma): > 56.5 µM
TGI (NCI-H522 lung): > 56.5 µM
TGI (TK-10 renal): > 56.5 µM
TGI (HL-60(TB) leukemia): > 56.5 µM
TGI (SW-620 colon): > 56.5 µM
TGI (IGROV1 ovarian): > 56.5 µM
TGI (786-0 renal): > 56.5 µM
TGI (SK-OV-3 ovarian): > 56.5 µM
TGI (U251 CNS): > 56.5 µM
TGI (A498 renal): > 56.5 µM
TGI (HOP-18 NSCLC): > 56.5 µM
TGI (A549 NSCLC): > 56.5 µM
TGI (HOP-92 NSCLC): > 56.5 µM
TGI (SNB-75 CNS): > 56.5 µM
TGI (COLO 205 colon): > 56.5 µM
TGI (UACC-62 melanoma): > 56.5 µM
TGI (OVCAR-3 ovarian): > 56.5 µM
TGI (OVCAR-4 ovarian): > 56.5 µM
TGI (SF-295 CNS): > 56.5 µM
TGI (DMS 114 small cell lung): > 56.5 µM
TGI (NCI-H23 lung): > 56.5 µM
TGI (NCI-H460 lung): > 56.5 µM
TGI (SK-MEL-28 melanoma): > 56.5 µM
TGI (ACHN renal): > 56.5 µM
TGI (DMS 273 small cell lung): > 56.5 µM
TGI (HCC-2998 colon): > 56.5 µM
TGI (HCT-116 colon): > 56.5 µM

CC(C)(C)c1cc(C(O)(C(F)(F)F)C(F)(F)F)c2c(c1)C(C(F)(F)F)(C(F)(F)F)OC(c1ccccc1)(C(C)(C)C)N2 (centres undefined)
TGI (M19-MEL melanoma): 13.8 µM
TGI (RXF 393 renal): 12.3 µM
TGI (SF-539 CNS): > 100 µM
TGI (NCI-H226 lung): 9.32 µM
TGI (LXFL 529 NSCLC): 12.5 µM
TGI (SNB-78 CNS): 24.1 µM
TGI (KM20L2 colon): 21 µM
TGI (UACC-257 melanoma): 19.7 µM
TGI (MOLT-4 leukemia): 4.91 µM
TGI (OVCAR-5 ovarian): 50.9 µM
TGI (MALME-3M melanoma): 27.6 µM
TGI (HT29 colon): 14.4 µM
TGI (SNB-19 CNS): 17.7 µM
TGI (XF 498 CNS): 6.24 µM
TGI (SN12C renal): 16.6 µM
TGI (HCT-15 colon): 13.7 µM
TGI (SK-MEL-2 melanoma): 19.7 µM
TGI (SK-MEL-5 melanoma): 10.3 µM
TGI (EKVX NSCLC): 17.5 µM
TGI (OVCAR-8 ovarian): 26.2 µM
TGI (DLD-1 colon): 14.6 µM
TGI (UO-31 renal): 15.2 µM
TGI (KM12 colon): 17.6 µM
TGI (M14 melanoma): 12.3 µM
TGI (NCI-H522 lung): 8.38 µM
TGI (TK-10 renal): 14.2 µM
TGI (SW-620 colon): 16.7 µM
TGI (IGROV1 ovarian): 16.7 µM
TGI (786-0 renal): > 100 µM
TGI (SK-OV-3 ovarian): 7.39 µM
TGI (U251 CNS): 10.4 µM
TGI (HOP-18 NSCLC): 6.81 µM
TGI (A549 NSCLC): > 100 µM
TGI (SNB-75 CNS): 15.1 µM
TGI (COLO 205 colon): 16.1 µM
TGI (RPMI-8226 leukemia): 12.1 µM
TGI (SR leukemia): 6.69 µM
TGI (UACC-62 melanoma): 14.6 µM
TGI (CAKI-1 renal): 16.4 µM
TGI (OVCAR-3 ovarian): 12.4 µM
TGI (OVCAR-4 ovarian): 46.3 µM
TGI (SF-295 CNS): 19.8 µM
TGI (K-562 leukemia): 11.6 µM
TGI (DMS 114 small cell lung): 9.8 µM
TGI (NCI-H23 lung): 10.3 µM
TGI (NCI-H460 lung): 11.7 µM
TGI (SK-MEL-28 melanoma): 22.1 µM
TGI (ACHN renal): 14 µM
TGI (DMS 273 small cell lung): 13.6 µM
TGI (HCC-2998 colon): 21.1 µM
TGI (HCT-116 colon): 13.2 µM

— PubChem BioAssay (NCI)
